Measurements: patent US20260053716A1, “COMPOSITION FOR DENTIN ADHESION AND COMPOSITION FOR PULP RESTORATION, EACH COMPOSITION CONTAINING CPNE7-DERIVED PEPTIDE” (HYSENSBIO CO., LTD, priority 2022, published 2026)
Ends that are not written are not given here.

Assay: Observation of dentinal tubule permeability by confocal microscopy
Type: in vitro ADME
Details: rhodamine-attached KH001 in ABU, applied about 30 seconds to coronal surface of extracted human tooth
Source text: The composition for dentin adhesion prepared according to Example 2-1-1 of the present invention was applied to extracted human teeth to observe dentinal tubule permeability. The extracted human teeth were impacted human third molars from patients aged 18 to 22, provided by the Seoul National University Dental Hospital. The experimental protocol was approved by the Institutional Review Board (IRB; IRB Number: S-D20140007), and prior consent was obtained from all patients.
The crown of the extracted human tooth was transversely cut using a diamond saw to expose the dentinal tubule, and then the exposed human tooth was treated. A composition for dentin adhesion prepared according to Example 2-1-1 containing the KH001 peptide (SEQ ID NO: 96), to which rhodamine was attached as a fluorescent dye, was applied to the coronal surface of the extracted human tooth.
The composition for dentin adhesion was applied without a brushing process or an air-drying process and left for about 30 seconds for photopolymerization, and then confocal images were taken.

Question: With KYKQKRRSYK [KH001, KYKQKRRSYK] as the sequence, how does the “dentinal tubule permeability (whether KH001 reached the pulp)” value read?
Answer: The value was “flowed well into the pulp cavity along the dentinal tubule”.
